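Test compounds were applied to cells in 96-well plates for 48 hours at 5 doses. GI50 is the concentration that inhibits growth by half.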 The source made the active and inactive calls. Rule as the data show it: active = GI50 up to about 1.1 µM and inactive = higher.
Columns and labels:
Test in all cases: NCI tumour cell line growth inhibition, 48 h
OVCAR-4 = tested on: OVCAR-4
ACHN = tested on: ACHN
NCI/ADR-RES = tested on: NCI/ADR-RES
IGROV-1 = tested on: IGROV-1
NCI-H23 = tested on: NCI-H23
RPMI-8226 = tested on: RPMI-8226
HCT-116 = tested on: HCT-116
CCRF-CEM = tested on: CCRF-CEM
Hs-578T = tested on: Hs-578T
786-0 = tested on: 786-0
M14 = tested on: M14
TK-10 = tested on: TK-10
K562 = tested on: K562
SN12C = tested on: SN12C
UACC-257 = tested on: UACC-257
COLO 205 = tested on: COLO 205
SK-MEL-28 = tested on: SK-MEL-28
UO-31 = tested on: UO-31
MDA-MB-435 = tested on: MDA-MB-435
SF-268 = tested on: SF-268
HOP-62 = tested on: HOP-62
HCC 2998 = tested on: HCC 2998
NCI-H522 = tested on: NCI-H522
Malme-3M = tested on: Malme-3M
NCI-H226 = tested on: NCI-H226
U-251 = tested on: U-251
MDA-MB-231 = tested on: MDA-MB-231
SK-MEL-5 = tested on: SK-MEL-5
A549 = tested on: A549
LOX IMVI = tested on: LOX IMVI
DU-145 = tested on: DU-145
MDA-N = tested on: MDA-N
A498 = tested on: A498
PC-3 = tested on: PC-3
CAKI-1 = tested on: CAKI-1
SNB-75 = tested on: SNB-75
KM12 = tested on: KM12
SW-620 = tested on: SW-620
EKVX = tested on: EKVX
UACC-62 = tested on: UACC-62
SK-OV-3 = tested on: SK-OV-3
SNB-19 = tested on: SNB-19
SK-MEL-2 = tested on: SK-MEL-2
RXF 393 = tested on: RXF 393
HCT-15 = tested on: HCT-15
OVCAR-5 = tested on: OVCAR-5
OVCAR-8 = tested on: OVCAR-8
SF-295 = tested on: SF-295
OVCAR-3 = tested on: OVCAR-3
NCI-H460 = tested on: NCI-H460
MCF7 = tested on: MCF7
SF-539 = tested on: SF-539
BT-549 = tested on: BT-549
T47D = tested on: T47D
HT-29 = tested on: HT-29
MOLT-4 = tested on: MOLT-4
HL-60 = tested on: HL-60
HOP-92 = tested on: HOP-92
SR = tested on: SR

Compound: COC(=O)[C@@]1(NC(=O)C(CC(=O)OC(C)(C)C)NC(=O)OC(C)(C)C)C[C@H]1C (some centres undefined)
- GI50 (OVCAR-4): > 100 µM (inactive)
- GI50 (ACHN): > 100 µM (inactive)
- GI50 (NCI/ADR-RES): > 100 µM (inactive)
- GI50 (IGROV-1): > 100 µM (inactive)
- GI50 (NCI-H23): > 100 µM (inactive)
- GI50 (RPMI-8226): > 100 µM (inactive)
- GI50 (HCT-116): > 100 µM (inactive)
- GI50 (CCRF-CEM): > 100 µM (inactive)
- GI50 (Hs-578T): > 100 µM (inactive)
- GI50 (786-0): > 100 µM (inactive)
- GI50 (M14): > 100 µM (inactive)
- GI50 (TK-10): > 100 µM (inactive)
- GI50 (K562): > 100 µM (inactive)
- GI50 (SN12C): > 100 µM (inactive)
- GI50 (UACC-257): > 100 µM (inactive)
- GI50 (COLO 205): > 100 µM (inactive)
- GI50 (SK-MEL-28): > 100 µM (inactive)
- GI50 (UO-31): > 100 µM (inactive)
- GI50 (MDA-MB-435): > 100 µM (inactive)
- GI50 (SF-268): > 100 µM (inactive)
- GI50 (HOP-62): > 100 µM (inactive)
- GI50 (HCC 2998): > 100 µM (inactive)
- GI50 (NCI-H522): > 100 µM (inactive)
- GI50 (Malme-3M): > 100 µM (inactive)
- GI50 (NCI-H226): > 100 µM (inactive)
- GI50 (U-251): > 100 µM (inactive)
- GI50 (MDA-MB-231): > 100 µM (inactive)
- GI50 (SK-MEL-5): > 100 µM (inactive)
- GI50 (A549): > 100 µM (inactive)
- GI50 (LOX IMVI): > 100 µM (inactive)
- GI50 (DU-145): > 100 µM (inactive)
- GI50 (MDA-N): > 100 µM (inactive)
- GI50 (A498): > 100 µM (inactive)
- GI50 (PC-3): > 100 µM (inactive)
- GI50 (CAKI-1): > 100 µM (inactive)
- GI50 (SNB-75): > 100 µM (inactive)
- GI50 (KM12): > 100 µM (inactive)
- GI50 (SW-620): > 100 µM (inactive)
- GI50 (EKVX): > 100 µM (inactive)
- GI50 (UACC-62): > 100 µM (inactive)
- GI50 (SK-OV-3): > 100 µM (inactive)
- GI50 (SNB-19): > 100 µM (inactive)
- GI50 (SK-MEL-2): > 100 µM (inactive)
- GI50 (RXF 393): > 100 µM (inactive)
- GI50 (HCT-15): > 100 µM
- GI50 (OVCAR-5): > 100 µM (inactive)
- GI50 (OVCAR-8): > 100 µM (inactive)
- GI50 (SF-295): > 100 µM (inactive)
- GI50 (OVCAR-3): > 100 µM (inactive)
- GI50 (NCI-H460): > 100 µM (inactive)
- GI50 (MCF7): > 100 µM (inactive)
- GI50 (SF-539): > 100 µM (inactive)
- GI50 (BT-549): > 100 µM (inactive)
- GI50 (T47D): > 100 µM (inactive)
- GI50 (HT-29): > 100 µM (inactive)
- GI50 (MOLT-4): > 100 µM (inactive)

Compound: Cc1cccc(/C=N/NC(=S)NCCc2ccccn2)n1
- GI50 (OVCAR-4): 42.2 µM (inactive)
- GI50 (ACHN): 13.3 µM (inactive)
- GI50 (NCI/ADR-RES): 31.8 µM (inactive)
- GI50 (IGROV-1): 20.1 µM (inactive)
- GI50 (NCI-H23): 26.6 µM (inactive)
- GI50 (RPMI-8226): > 53.2 µM (inactive)
- GI50 (HCT-116): 31.8 µM (inactive)
- GI50 (CCRF-CEM): 9.89 µM (inactive)
- GI50 (Hs-578T): 53.5 µM (inactive)
- GI50 (786-0): 23.3 µM (inactive)
- GI50 (M14): 16.7 µM (inactive)
- GI50 (TK-10): 71.4 µM (inactive)
- GI50 (K562): 30.8 µM (inactive)
- GI50 (SN12C): 29.9 µM (inactive)
- GI50 (UACC-257): 33.8 µM (inactive)
- GI50 (COLO 205): 31.4 µM (inactive)
- GI50 (SK-MEL-28): 56.1 µM (inactive)
- GI50 (UO-31): 16.9 µM (inactive)
- GI50 (MDA-MB-435): 27.4 µM (inactive)
- GI50 (SF-268): 19.6 µM (inactive)
- GI50 (HOP-62): 18 µM (inactive)
- GI50 (HCC 2998): 42.2 µM (inactive)
- GI50 (HL-60): 15.6 µM (inactive)
- GI50 (NCI-H522): 34.8 µM (inactive)
- GI50 (Malme-3M): 47.6 µM (inactive)
- GI50 (NCI-H226): 16.1 µM (inactive)
- GI50 (U-251): 20.4 µM (inactive)
- GI50 (HOP-92): 22.3 µM (inactive)
- GI50 (MDA-MB-231): 39 µM (inactive)
- GI50 (SK-MEL-5): 26.1 µM (inactive)
- GI50 (SR): 28.4 µM (inactive)
- GI50 (A549): 36.6 µM (inactive)
- GI50 (LOX IMVI): 18.3 µM (inactive)
- GI50 (DU-145): 22.3 µM (inactive)
- GI50 (MDA-N): 60.8 µM (inactive)
- GI50 (A498): 34 µM (inactive)
- GI50 (PC-3): 35.2 µM (inactive)
- GI50 (CAKI-1): 26.7 µM (inactive)
- GI50 (SNB-75): 20.3 µM (inactive)
- GI50 (KM12): 36.4 µM (inactive)
- GI50 (SW-620): 42.5 µM (inactive)
- GI50 (EKVX): 38.2 µM (inactive)
- GI50 (UACC-62): 22.5 µM (inactive)
- GI50 (SK-OV-3): 14.1 µM (inactive)
- GI50 (SNB-19): 37.1 µM (inactive)
- GI50 (SK-MEL-2): 31.2 µM (inactive)
- GI50 (HCT-15): 26.5 µM
- GI50 (OVCAR-5): 46.7 µM (inactive)
- GI50 (OVCAR-8): 27.9 µM (inactive)
- GI50 (SF-295): 24.6 µM (inactive)
- GI50 (OVCAR-3): 48 µM (inactive)
- GI50 (NCI-H460): 14.9 µM (inactive)
- GI50 (MCF7): 37.2 µM (inactive)
- GI50 (SF-539): 26.7 µM (inactive)
- GI50 (BT-549): 35.2 µM (inactive)
- GI50 (T47D): 37.8 µM (inactive)
- GI50 (HT-29): 27.9 µM (inactive)
- GI50 (MOLT-4): 18.9 µM (inactive)

From ChEMBL document CHEMBL1201862, “PubChem BioAssay data set” (2004)
